This is an account of results in patent publication US4241053A, “Novel nitrosourea compounds and process for preparing the same” (Tanabe Seiyaku Co., Ltd., priority 1978, dated 1980).

In one data set the test system is leukemic cells. The following applies: cited from earlier work.
For another data set, the system named is lymphoid leukemia L-1210. The note with it: tumor cells implanted intraperitoneally; cited from earlier work.
Data set [1] is described as follows: Preventive effect against the growth of Ehrlich ascites tumor (Method A). Type of data set: in vivo, mice (female ICR). The note with it: mouse, in vivo, ip; maximum dose with 100% inhibition of Ehrlich ascites tumor without causing death; unit from dose column; read-out: MTD (Maximum Tolerated Dose). The protocol:
(§1) (A) Preventive effect against the growth of Ehrlich ascites tumor:
(§2) 10^6 tumor cells of Ehrlich ascites carcinoma were inoculated intraperitoneally into a group of five femal mice (ICR mice, body weight: 19-23 g). A test compound was dissolved in a physiological saline solution [In the case where CCNU was employed as the test compound, said compound was suspended in a physiological saline solution containing 0.1% NIKKOL HCO-60 (trademark; a surface active agent manufactured by Nikko Chemicals Co. Ltd.)] and administered intraperioneally to the mice. The administration of the test compound was begun 24 hours after the inoculation of the tumor cells and performed once a day for 5 days. The volume of ascites in the treated mice were measured after 7 days of the experiment.
(§3) ^a T = the average volume of ascites in the treated mice
(§4) C = the average volume of ascites in the untreated mice (control group of
(§5) 100% inhibition for the growth of Ehrlich ascites tumor in mice without
(§6) causing the death of said mice)
(§7) 100% inhibition for the growth of said ascites tumor)
(§8) ^e Therapeutic index = MTD/MED
(§9) *the number of mice died/the number of mice used

Data set [2] relates to Ehrlich ascites carcinoma. The description is as above. In kind it is in vivo, mice (female ICR). The following applies: for inhibition in vivo at 0.19 mg/kg: 0.19 mg/kg/day i.p.; for inhibition in vivo at 0.39 mg/kg: 0.39 mg/kg/day i.p.; for inhibition in vivo at 0.78 mg/kg: 0.78 mg/kg/day i.p.; for inhibition in vivo at 3.12 mg/kg: 3.12 mg/kg/day i.p.; for minimal effective dose: minimum dose with 100% inhibition of ascites tumor, unit from dose column, read-out: MED (Minimum Effective Dose). How it is done: as §1, §2, §3, §4, §5, §6, §7, §8, §9

The test system of a further data set is Leukemia L-1210. Description: Effect on the life span of mice implanted with leukemic cells of L-1210 (Method B). Type of data set: in vivo, mice (male BDF1). The note with it: Mus musculus, L1210, ip, once a day for 5 days; for ILS at 25 mg/kg / responders at 25 mg/kg: 25 mg/kg/day i.p.; for ILS at 50 mg/kg / responders at 50 mg/kg: 50 mg/kg/day i.p. The protocol: (B) Effect on the life span of mice implanted with leukemic cells of L-1210:
10^5 leukemic cells of L-1210 were inoculated intraperitoneally into a group of four or six male mice (BDF1 mice, body weight: 19-23 g). A test compound was dissolved in a physiological saline solution and administered intraperitoneally to the mice. The administration of the test compound was begun 24 hours after the inoculation of the leukemic cells and performed once a day for 5 days. The survival days of the treated mice were observed.
^a T = the mean survival days of the treated mice
C = the mean survival days of the untreated mice (control group of mice)
^b ILS(Increase in Life Span) =-
^c 60day survivors = the number of mice survived for 60 days/the

The mark [3] stands for this setting: Mus musculus, Ehrlich, ip, 168 h, once a day for 5 days, read-out: Inhibition ratio.
Where [4] appears, read: Mus musculus, Ehrlich, ip, 168 h.
Where [5] appears, read: 120 h, read-out: ILS (Increase in Life Span).
The mark [6] stands for this setting: 1440 h, 12.5 mg/kg/day i.p., read-out: 60-day survivors (mice survived for 60 days/mice used) (converted).
Setting [7] is: 1440 h, read-out: 60-day survivors (mice survived for 60 days/mice used) (converted).

Consider `O=NN(CCCl)C(=O)NC1O[C@H](CO)[C@@H](O[C@@H]2O[C@H](CO)[C@H](O)[C@H](O)[C@H]2O)[C@H](O)[C@H]1O` (stereo partly drawn) [1-(2-chloroethyl)-1-nitroso-3-(D-lactosyl)urea], for which the “anti-tumor activity against leukemic cells” value with leukemic cells is “show anti-tumor activity”.

`O=NN(CCCl)C(=O)NC1O[C@H](CO)[C@@H](O[C@H]2O[C@H](CO)[C@@H](O)[C@H](O)[C@H]2O)[C@H](O)[C@H]1O` (stereo partly drawn) [1-(2-chloroethyl)-1-nitroso-3-(D-maltosyl)urea]: the “anti-tumor activity against leukemic cells” value with leukemic cells is reported as “show anti-tumor activity”.

With `O=NN(CCCl)C(=O)NC1O[C@H](CO)[C@@H](O)[C@H](O)[C@@H]1O` (stereo partly drawn) [1-(2-chloroethyl)-1-nitroso-3-(D-mannopyranosyl)urea], the “life span of mice implanted with L-1210” value with lymphoid leukemia L-1210 is “increase the life span”.

Consider `COCCN(C(=O)N(CCCl)N=O)C1O[C@H](CO)[C@@H](O)[C@H]1O` (stereo partly drawn) [Compound 9, 1-(2-chloroethyl)-1-nitroso-3-(2-methoxyethyl)-3-(D-ribofuranosyl)urea], for which, in data set [1], the maximum tolerated dose (MTD) – broadly, the highest dose tested that stayed within the study's limit of toxicity – at 168 h was determined as 50 mg/kg/day. The “Toxic (number of mice died/number of mice used)” value in data set [2] (100 mg/kg/day i.p., once a day for 5 days) is 3/5. In addition, the “Therapeutic index (MTD/MED)” value in data set [2] was 64. Moreover, in data set [2] (setting [3]), the inhibition in vivo at 0.19 mg/kg turned out to be 20%, the inhibition in vivo at 0.39 mg/kg stood at 62%, the inhibition in vivo at 0.78 mg/kg was found to be 100% and the inhibition in vivo at 3.12 mg/kg worked out at 100%. Besides, the inhibition in vivo at 12.5 mg/kg in data set [2] (Mus musculus, Ehrlich, ip, 168 h, 12.5 mg/kg/day i.p., once a day for 5 days, read-out: Inhibition ratio) is 100%. In addition, the inhibition in vivo at 50 mg/kg in data set [2] (Mus musculus, Ehrlich, ip, 168 h, 50 mg/kg/day i.p., once a day for 5 days, read-out: Inhibition ratio) is 100%. Besides, in data set [2] (setting [4]), the minimal effective dose was 0.78 mg/kg/day. Also, the ILS (as a rule, the gain in survival time of treated over control animals, in per cent) at 1.56 mg/kg with Leukemia L-1210 (120 h, 1.56 mg/kg/day i.p., read-out: ILS (Increase in Life Span)) amounted to 40%. Moreover, in the data set on Leukemia L-1210 (120 h, 6.25 mg/kg/day i.p., read-out: ILS (Increase in Life Span)), the ILS at 6.25 mg/kg was above 243%. Moreover, in the data set on Leukemia L-1210 (120 h, 12.5 mg/kg/day i.p., read-out: ILS (Increase in Life Span)), the increase in life span (ILS) at 12.5 mg/kg is above 414%. For the same compound, in the data set with Leukemia L-1210 (setting [5]), the ILS at 25 mg/kg is above 757% and the increase in life span (ILS) at 50 mg/kg was above 757%. In addition, the responders at 1.56 mg/kg with Leukemia L-1210 (1440 h, 1.56 mg/kg/day i.p., read-out: 60-day survivors (mice survived for 60 days/mice used)) worked out at 0%. The responders at 6.25 mg/kg in the data set with Leukemia L-1210 (1440 h, 6.25 mg/kg/day i.p., read-out: 60-day survivors (mice survived for 60 days/mice used) (converted)) is 25%. In the data set with Leukemia L-1210 (setting [6]), the responders at 12.5 mg/kg was 50%. Moreover, in the data set on Leukemia L-1210 (setting [7]), the responders at 25 mg/kg was 100% and the responders at 50 mg/kg was 100%.

Regarding `COCCCN(C(=O)N(CCCl)N=O)C1O[C@H](CO)[C@@H](O)[C@H](O)[C@H]1O` (stereo partly drawn) [Compound 12, 1-(2-chloroethyl)-1-nitroso-3-(3-methoxy-n-propyl)-3-(D-glucopyranosyl)urea], the maximal tolerated dose (MTD) at 168 h in data set [1] stood at 100 mg/kg/day. In addition, in data set [2] (200 mg/kg/day i.p., once a day for 5 days), the “Toxic (number of mice died/number of mice used)” value was 5/5. Besides, the “Therapeutic index (MTD/MED)” value in data set [2] is 32. Besides, in data set [2] (setting [3]), the inhibition in vivo at 0.39 mg/kg turned out to be 10%, the inhibition in vivo at 0.78 mg/kg was 34% and the inhibition in vivo at 3.12 mg/kg is 100%. For the same compound, the inhibition in vivo at 1.56 mg/kg in data set [2] (Mus musculus, Ehrlich, ip, 168 h, 1.56 mg/kg/day i.p., once a day for 5 days, read-out: Inhibition ratio) is 90%. Further, in data set [2] (Mus musculus, Ehrlich, ip, 168 h, 6.25 mg/kg/day i.p., once a day for 5 days, read-out: Inhibition ratio), the inhibition in vivo at 6.25 mg/kg came out at 100%. Also, in data set [2] (Mus musculus, Ehrlich, ip, 168 h, 25 mg/kg/day i.p., once a day for 5 days, read-out: Inhibition ratio), the inhibition in vivo at 25 mg/kg amounted to 100%. Further, the inhibition in vivo at 100 mg/kg in data set [2] (Mus musculus, Ehrlich, ip, 168 h, 100 mg/kg/day i.p., once a day for 5 days, read-out: Inhibition ratio) stood at 100%. Further, the minimal effective dose in data set [2] (setting [4]) was 3.12 mg/kg/day. Besides, in the data set with Leukemia L-1210 (setting [5]), the increase in life span (ILS) at 25 mg/kg is above 304% and the ILS at 50 mg/kg was above 757%. Also, the responders at 12.5 mg/kg with Leukemia L-1210 (setting [6]) is 0%. For the same compound, in the data set with Leukemia L-1210 (setting [7]), the responders at 25 mg/kg was 25% and the responders at 50 mg/kg was 100%.

Consider `O=NN(CCCl)C(=O)N[C@@H]1O[C@H](CO)[C@@H](O)[C@H](O)[C@H]1O` [GANU, 1-(2-chloroethyl)-1-nitroso-3-(D-glucopyranosyl)urea, reference compound], for which the maximal tolerated dose (MTD) at 168 h in data set [1] is 12.5 mg/kg/day. For the same compound, the “Toxic (number of mice died/number of mice used)” value in data set [2] (25 mg/kg/day i.p., once a day for 5 days) is listed as 5/5. Also, the inhibition in vivo at 0.09 mg/kg in data set [2] (Mus musculus, Ehrlich, ip, 168 h, 0.09 mg/kg/day i.p., once a day for 5 days, read-out: Inhibition ratio) is 4.2%. Further, in data set [2] (setting [3]), the inhibition in vivo at 0.19 mg/kg came to 79.2%, the inhibition in vivo at 0.39 mg/kg was 100%, the inhibition in vivo at 0.78 mg/kg stood at 100% and the inhibition in vivo at 3.12 mg/kg stood at 100%. Also, in data set [2] (Mus musculus, Ehrlich, ip, 168 h, 1.25 mg/kg/day i.p., once a day for 5 days, read-out: Inhibition ratio), the inhibition in vivo at 1.25 mg/kg is 100%. Moreover, in the data set with lymphoid leukemia L-1210, the “life span of mice implanted with L-1210” value is reported as “increase the life span”.
